Measured values published in patent publication US7494669B2, “Delivery of physiological agents with in-situ gels comprising anionic polysaccharides” (priority 2001, dated 2009).
Like-named read-outs stand apart in the source and are kept apart here.

Legend:
[1] = Gelation of HMW Aloe pectin solution on mixing with divalent cation salts; type: physicochemical; parameters: key: + indicates whole gel formation; ± partial gel formation; − no gel formation and solution remains clear and homogenous
Protocol: A 0.6% (w/v) HMW Aloe pectin solution in water was mixed with calcium chloride dihydrate solutions at various concentrations, at an 1:1 ratio (1 ml to 1 ml) to achieve a final polymer concentration of 0.3% (w/v) and a final calcium chloride dihydrate concentration from 0.0019-0.5% (w/v). The mixtures were immediately vortexed together, then the tubes were kept at room temperature and observed over time.

[2] = system: cells surrounding the gel; experiment: Local delivery of bFGF by Aloe pectin in-situ gel; type: in vivo, mice
Excerpt: For growth factors to exert local effect on tissues surrounding the administration site, they need to be delivered in a matrix to allow them to be released in a slow or sustained manner. A delivery in saline or buffer alone is not effective in this regard. In this example, a growth factor (bFGF) was used. bFGF (basic fibroblast growth factor or FGF-2) is a growth factor known to stimulate fibroblast proliferation and angiogenesis or blood vessel formation. It was mixed with Aloe pectin (0.5%, w/v) in physiological saline at a concentration of 1-10 μg/ml and then injected subcutaneously into the lower left or right side of abdominal region of mice. One side received the control (pectin alone), and the other side received the bFGF-containing preparation. The in-situ gels from two mice were harvested along with skin at days 5-10 and subjected to fixation in formalin, sectioning, and H&E staining. Two identical areas, at either end of the gel, vertically between the gel surface and the skin muscle layer and horizontally 510 μm inward from the lateral end of the gel were selected, and the cells in these two selected areas from each gel were numerated using the NIH image software.

[3] = Gel frontal migration assay with serum; type: physicochemical; conditions: 3 mg/ml pectin with 0.0039% or 0.0078% calcium chloride on normal calf serum
Excerpt: Body fluids such as blood, lacrimal fluid, lung fluid and nasal secretions contain calcium ions ([…] in blood, for example). Since Aloe pectin forms calcium gel, the role of calcium in the in-situ gelation of Aloe pectin was examined using an in vitro gelling assay with animal serum that simulates in-situ gel formation. This in vitro assay is described as a gel frontal migration assay. Animal serum was placed at the bottom of a glass tube and the Aloe pectin solution was layered on top of the serum (the pectin solution may also be placed at the bottom of the tube dependent on the density of the test solution in relation to the pectin solution). Tissue culture grade normal calf serum was used. […]
Gel formation was immediate at the contact line (interface of the solutions) and the gel phase or gel front gradually extended upward in the pectin solution over time. […] The thickness of the gel formed at the interface can be measured over time (such measurements are referred to as “gel length” hereinbelow).
The gel frontal migration assay described above was used. […] After 18 hrs at room temperature, the length of gels formed (i.e. gel thickness) was measured. […]
The gel frontal migration assay described above was used. […] The length of gels formed was measured 18 hrs later. […]

[4] = 0.3% (w/v) HMW Aloe pectin, salt 0 % w/v final
[5] = 0.3% (w/v) HMW Aloe pectin, salt 0.0019 % w/v final
[6] = 0.3% (w/v) HMW Aloe pectin, salt 0.0039 % w/v final
[7] = 0.3% (w/v) HMW Aloe pectin, salt 0.0156 % w/v final
[8] = 0.3% (w/v) HMW Aloe pectin, salt 0.0313 % w/v final
[9] = 0.3% (w/v) HMW Aloe pectin, salt 0.0625 % w/v final
[10] = 0.3% (w/v) HMW Aloe pectin, salt 0.125 % w/v final
[11] = 0.3% (w/v) HMW Aloe pectin, salt 0.25 % w/v final
[12] = 0.3% (w/v) HMW Aloe pectin, salt 0.5 % w/v final

Row | Molecule | Gel formation on mixing with HMW Aloe pectin [1, 4] | Gel formation on mixing with HMW Aloe pectin [1, 5] | Gel formation on mixing with HMW Aloe pectin [1, 6] | Gel formation on mixing with HMW Aloe pectin ([1]; 0.3% (w/v) HMW Aloe pectin, salt 0.0078 % w/v final) | Gel formation on mixing with HMW Aloe pectin [1, 7] | Gel formation on mixing with HMW Aloe pectin [1, 8] | Gel formation on mixing with HMW Aloe pectin [1, 9] | Gel formation on mixing with HMW Aloe pectin [1, 10] | Gel formation on mixing with HMW Aloe pectin [1, 11] | Gel formation on mixing with HMW Aloe pectin [1, 12] | Blood vessel formation surrounding the gel ([2]; bFGF 10 μg/ml) | Cell number in bFGF-treated relative to the control (pectin alone) ([2]; bFGF 1-10 μg/ml in 0.5% Aloe pectin, subcutaneous, days 5-10) | Gel formation on mixing with HMW Aloe pectin [1] | Gel formation versus control without added calcium chloride [3]
1 | [Cl-].[Cl-].[Zn+2] [ZnCl2, zinc chloride] | − | − | − | − | ± | + | + | + | + | + |  |  |  | 
2 | bFGF: basic fibroblast growth factor (FGF-2), delivered in 0.5% Aloe pectin in physiological saline |  |  |  |  |  |  |  |  |  |  | increase in blood vessel formation | more than 2 times |  | 
3 | O.O.[Ca+2].[Cl-].[Cl-] [CaCl2•2H2O, calcium chloride dihydrate] | − | − | − |  | ± | + | + | + | + | + |  |  | − | gel formation increased
